Laboratory results: US20070117743A1, “New antitumoral compounds” (priority 2003, published 2007)
Read-outs that look alike come from different tables or passages of the source. Where a SMILES comes first, the peptide text is derived from it. Bridges are numbered along the chain shown (N, C = ends). [ ]: non-standard residue; d: D form. The star is where a group is joined. d(aIle) = CC[C@H](C)[C@@H](N)C(=O)O; d(aThr) = C[C@@H](O)[C@@H](N)C(=O)O; Hexanoyl(5-Me) = CC(C)CCCC(=O)*; Orn = NCCC[C@H](N)C(=O)O; Aib = CC(C)(N)C(=O)O

What was measured:
Type in all cases: cell-based, human
DU-145 = assay: SRB colorimetric assay of cell growth and viability, DU-145; settings: 48 hours exposure
SK-BR-3 = assay: SRB colorimetric assay of cell growth and viability, SK-BR-3; settings: 48 hours exposure
LNCaP = assay: SRB colorimetric assay of cell growth and viability, LNCaP; settings: 48 hours exposure; for GI50: read-out: GI50 LN-caP; for CC50: read-out: LC50 LN-caP
SK-MEL-28 = assay: SRB colorimetric assay of cell growth and viability, SK-MEL-28; settings: 48 hours exposure; for CC50: read-out: LC50 MEL-28
LoVo-Dox = assay: SRB colorimetric assay of cell growth and viability, LoVo-Dox; settings: 48 hours exposure, SRB; for CC50: read-out: LC50 LOVO-DOX
Procedure, shortened: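 Human tumor cells seeded at 5×10^3/well in RPMI 1640 10% FBS, attached 18 hours, then exposed 48 hours to compound (10 to 10^−8 μg/mL). TCA-fixed, SRB-stained, OD 490 nm; triplicates give GI, TGI and LC values.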

IGROV-ET = assay: SRB colorimetric assay of cell growth and viability, IGROV-ET; settings: 48 hours exposure; for CC50: read-out: LC50 IGROV-ET
HeLa = assay: SRB colorimetric assay of cell growth and viability, HeLa; settings: 48 hours exposure, SRB; for CC50: read-out: LC50 HELA
A-549 = assay: SRB colorimetric assay of cell growth and viability, A-549; settings: 48 hours exposure, SRB; for GI50: read-out: GI50 A-549; for CC50: read-out: LC50 A-549
HT-29 = assay: SRB colorimetric assay of cell growth and viability, HT-29; settings: 48 hours exposure, SRB; for GI50: read-out: GI50 HT-29; for CC50: read-out: LC50 HT-29
LoVo = assay: SRB colorimetric assay of cell growth and viability, LoVo; settings: 48 hours exposure, SRB; for CC50: read-out: LC50 LOVO
IGROV-1 = assay: SRB colorimetric assay of cell growth and viability, IGROV-1; settings: 48 hours exposure
HeLa-APL = assay: SRB colorimetric assay of cell growth and viability, HeLa-APL; settings: 48 hours exposure, SRB; for CC50: read-out: LC50 HELA-APL
K-562 = assay: SRB colorimetric assay of cell growth and viability, K-562; settings: 48 hours exposure, SRB; for CC50: read-out: LC50 K-562
PANC-1 = assay: SRB colorimetric assay of cell growth and viability, PANC-1; settings: 48 hours exposure, SRB; for CC50: read-out: LC50 PANC-1

CC[C@H](C)[C@@H](NC(=O)[C@H](CCCN)NC(=O)[C@H]1CCCN1C(=O)[C@H](NC(=O)[C@@H](NC(=O)[C@@H](NC(=O)[C@H](NC(=O)CCCC(C)C)C(C)C)[C@@H](C)O)C(C)C)C(C)C)C(=O)N[C@H]1C(=O)N[C@H]([C@@H](C)CC)C(=O)N[C@H](C(C)C)C(=O)N[C@@H](Cc2ccccc2)C(=O)NCC(=O)N[C@@H](C(C)C)C(=O)O[C@@H]1C [Compound 65, [Gly^2]-KF] ({Hexanoyl(5-Me)}-[dV]TV[dV][dP][Orn][d(aIle)][d(aThr)][d(aIle)][dV]FGV; ester 8-C)
GI50 (DU-145): 1.17 µM
LC50 (concentration causing 50% net cell kill) (DU-145): 4.44 µM
TGI DU-145 (DU-145): 2.28E−06 Molar
GI50 (SK-BR-3): 1.16 µM
LC50 (SK-BR-3): 4.19 µM
TGI SK-BR-3 (SK-BR-3): 2.21E−06 Molar
TGI LN-caP (LNCaP): 6.89E−06 Molar
GI50 (LNCaP): 3.48 µM
CC50 (LNCaP): ≥ 6.89 µM
GI50 (SK-MEL-28): 1.43 µM
TGI MEL-28 (SK-MEL-28): 3.39E−06 Molar
CC50 (SK-MEL-28): ≥ 6.89 µM
GI50 (LoVo-Dox): 0.557 µM
TGI LOVO-DOX (LoVo-Dox): 1.53E−06 Molar
CC50 (LoVo-Dox): 3.81 µM
GI50 (IGROV-ET): 0.806 µM
TGI IGROV-ET (IGROV-ET): 1.69E−06 Molar
CC50 (IGROV-ET): 3.56 µM
GI50 (HeLa): 1.21 µM
TGI HELA (HeLa): 1.99E−06 Molar
CC50 (HeLa): 3.26 µM
TGI A-549 (A-549): 4.99E−06 Molar
GI50 (A-549): 1.95 µM
CC50 (A-549): ≥ 6.89 µM
TGI HT-29 (HT-29): 2.54E−06 Molar
GI50 (HT-29): 1.23 µM
CC50 (HT-29): 5.28 µM
GI50 (LoVo): 1.03 µM
TGI LOVO (LoVo): 1.98E−06 Molar
CC50 (LoVo): 3.81 µM
GI50 (IGROV-1): 1.44 µM
LC50 (concentration causing 50% net cell killing) (IGROV-1): 4.96 µM
TGI IGROV (IGROV-1): 2.67E−06 Molar
GI50 (HeLa-APL): 2.23 µM
TGI HELA-APL (HeLa-APL): 6.89E−06 Molar
CC50 (HeLa-APL): ≥ 6.89 µM
GI50 (K-562): 3 µM
TGI K-562 (K-562): 6.89E−06 Molar
CC50 (K-562): ≥ 6.89 µM
GI50 (PANC-1): ≥ 6.89 µM
TGI PANC-1 (PANC-1): 6.89E−06 Molar
CC50 (PANC-1): ≥ 6.89 µM

CC[C@H](C)[C@@H](NC(=O)[C@H](CCCN)NC(=O)[C@H]1CCCN1C(=O)[C@H](NC(=O)[C@@H](NC(=O)[C@@H](NC(=O)[C@H](NC(=O)CCCC(C)C)C(C)C)[C@@H](C)O)C(C)C)C(C)C)C(=O)N[C@H]1C(=O)N[C@H]([C@@H](C)CC)C(=O)N[C@H](C(C)C)C(=O)N[C@@H](Cc2ccccc2)C(=O)NC(C)(C)C(=O)N[C@@H](C(C)C)C(=O)O[C@@H]1C [Compound 66, [Aib^2]-KF] ({Hexanoyl(5-Me)}-[dV]TV[dV][dP][Orn][d(aIle)][d(aThr)][d(aIle)][dV]F[Aib]V; ester 8-C)
GI50 (DU-145): 1.36 µM
TGI DU-145 (DU-145): 2.73E−06 Molar
LC50 (concentration causing 50% net cell kill) (DU-145; SRB): 5.45 µM
GI50 (SK-BR-3): 1.49 µM
TGI SK-BR-3 (SK-BR-3): 2.67E−06 Molar
LC50 (SK-BR-3; SRB): 4.77 µM
TGI LN-caP (LNCaP): 6.76E−06 Molar
CC50 (LNCaP; SRB): ≥ 6.76 µM
GI50 (LNCaP): 4.63 µM
GI50 (SK-MEL-28): 2.24 µM
TGI MEL-28 (SK-MEL-28): 6.14E−06 Molar
CC50 (SK-MEL-28; SRB): ≥ 6.76 µM
GI50 (LoVo-Dox): 1.07 µM
TGI LOVO-DOX (LoVo-Dox): 2.26E−06 Molar
CC50 (LoVo-Dox): 4.8 µM
GI50 (IGROV-ET): 1.21 µM
TGI IGROV-ET (IGROV-ET): 2.43E−06 Molar
CC50 (IGROV-ET; SRB): 4.89 µM
GI50 (HeLa): 3.17 µM
TGI HELA (HeLa): 6.76E−06 Molar
CC50 (HeLa): ≥ 6.76 µM
TGI A-549 (A-549): 6.76E−06 Molar
GI50 (A-549): 4.96 µM
CC50 (A-549): ≥ 6.76 µM
TGI HT-29 (HT-29): 2.54E−06 Molar
GI50 (HT-29): 1.28 µM
CC50 (HT-29): 5.06 µM
GI50 (LoVo): 1.3 µM
TGI LOVO (LoVo): 2.47E−06 Molar
CC50 (LoVo): 4.71 µM
GI50 (IGROV-1): 1.57 µM
TGI IGROV (IGROV-1): 2.82E−06 Molar
LC50 (concentration causing 50% net cell killing) (IGROV-1; SRB): 5.05 µM
GI50 (HeLa-APL): 3.41 µM
TGI HELA-APL (HeLa-APL): 6.76E−06 Molar
CC50 (HeLa-APL): ≥ 6.76 µM
GI50 (K-562): ≥ 6.76 µM
TGI K-562 (K-562): 6.76E−06 Molar
CC50 (K-562): ≥ 6.76 µM
GI50 (PANC-1): ≥ 6.76 µM
TGI PANC-1 (PANC-1): 6.76E−06 Molar
CC50 (PANC-1): ≥ 6.76 µM
